Data published in patent publication US3933782A, “(N-Acetyl)-Pro-D-Phe-Trp-Ser-Tyr-D-Ala-Leu-Arg-Pro-NHEt and intermediates” (American Home Products Corporation, priority 1974, dated 1976).
Where a SMILES comes first, the peptide text is derived from it. [ ]: non-standard residue; d: D form. pGlu = O=C1CC[C@@H](C(=O)O)N1

Legend:
[1] = tested on: ovulation in mature Sprague-Dawley rats; conditions: same rat ovulation test; absence of or significant decrease in number of ova is the criterion
Method: The test was conducted with mature Sprague-Dawley rats, normally cycling, unanesthetized, proestrous rats. On the afternoon of proestrous, each rat in the test group received six subcutaneous injections of the acetate salt of formula I in corn oil, each injection being given a half hour following the previous injection. The rats are sacrificed the next morning and the number of animals ovulating and the number of ova shed are recorded following the procedure described by E. S. France, Neuroendocrinology 6, pp 77-89 (1970). The absence of or a significant decrease in the number of ova is the criterion for an anti-ovulation effect.

ovulation = conditions: as described in Ser. No. 402,958, now U.S. Pat. No. 3,855,199; cited from earlier work

Compound | antiovulatory activity (result in words) [1] | anti-ovulatory activity (result in words) (ovulation)
CCNC(=O)[C@@H]1CCCN1C(=O)[C@H](CCCNC(=N)N)NC(=O)[C@H](CC(C)C)NC(=O)[C@@H](C)NC(=O)[C@H](Cc1ccc(O)cc1)NC(=O)[C@H](CO)NC(=O)[C@H](Cc1c[nH]c2ccccc12)NC(=O)[C@@H](Cc1ccccc1)NC(=O)[C@@H]1CCC(=O)N1 [p-Glu-D-Phe-Trp-Ser-Tyr-D-Ala-Leu-Arg-Pro-NHEt] ([pGlu][dF]WSY[dA]LRP-NHEt) | devoid of antiovulatory activity | 
[D-Phe^2 -D-Ala^6 ]-LRF |  | having anti-ovulatory activity
